Activity calls are given as the source filed them.
Key:
[1] = molecular target: Cystic fibrosis transmembrane conductance regulator/Golgi-associated PDZ and coiled-coil motif-containing protein (Homo sapiens, UniProt P13569+Q9HD26); test: potency against CAL PDZ-peptide interaction – biochemical, fluorescence polarization, Cerulean-tagged CAL PDZ, cherry-picks, dose response (AID 504773)
[2] = molecular target: T1, Hexokinase HKDC1 (Homo sapiens, UniProt Q2TB90); test: inhibition of HKDC1 glucose phosphorylation – biochemical, W721R variant, dose response (AID 504729); format: functional
T1 sequence (Q2TB90 whole entry): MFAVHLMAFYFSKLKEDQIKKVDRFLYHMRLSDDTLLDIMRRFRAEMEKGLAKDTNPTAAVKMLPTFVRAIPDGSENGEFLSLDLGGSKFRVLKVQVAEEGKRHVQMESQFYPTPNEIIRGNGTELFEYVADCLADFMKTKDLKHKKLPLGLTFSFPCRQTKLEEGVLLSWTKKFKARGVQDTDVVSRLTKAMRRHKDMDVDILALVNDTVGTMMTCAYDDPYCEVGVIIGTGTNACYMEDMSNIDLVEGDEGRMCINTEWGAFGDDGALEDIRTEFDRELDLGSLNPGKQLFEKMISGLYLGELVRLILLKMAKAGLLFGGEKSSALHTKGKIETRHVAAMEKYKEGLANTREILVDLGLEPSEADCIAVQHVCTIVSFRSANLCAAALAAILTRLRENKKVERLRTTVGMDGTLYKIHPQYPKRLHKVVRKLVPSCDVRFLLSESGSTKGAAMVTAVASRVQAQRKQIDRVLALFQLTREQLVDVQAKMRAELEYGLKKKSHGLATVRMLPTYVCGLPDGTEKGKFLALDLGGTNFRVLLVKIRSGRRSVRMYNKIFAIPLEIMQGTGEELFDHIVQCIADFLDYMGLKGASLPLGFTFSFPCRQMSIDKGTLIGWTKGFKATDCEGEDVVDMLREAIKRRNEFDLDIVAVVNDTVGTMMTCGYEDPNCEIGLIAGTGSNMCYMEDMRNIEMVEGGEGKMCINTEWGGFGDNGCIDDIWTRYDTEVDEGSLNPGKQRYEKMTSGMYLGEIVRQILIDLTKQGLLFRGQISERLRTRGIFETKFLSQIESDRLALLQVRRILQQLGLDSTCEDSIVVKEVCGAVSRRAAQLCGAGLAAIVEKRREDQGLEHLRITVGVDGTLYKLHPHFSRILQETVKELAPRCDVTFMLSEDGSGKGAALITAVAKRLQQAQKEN

[3] = molecular target: T2, Replicative DNA helicase DnaB (Mycobacterium tuberculosis, UniProt P9WMR3); test: DnaB intein splicing inhibitors, dose response, biochemical, cell-free fluorescence (AID 449749); format: functional
T2 sequence (P9WMR3 whole entry): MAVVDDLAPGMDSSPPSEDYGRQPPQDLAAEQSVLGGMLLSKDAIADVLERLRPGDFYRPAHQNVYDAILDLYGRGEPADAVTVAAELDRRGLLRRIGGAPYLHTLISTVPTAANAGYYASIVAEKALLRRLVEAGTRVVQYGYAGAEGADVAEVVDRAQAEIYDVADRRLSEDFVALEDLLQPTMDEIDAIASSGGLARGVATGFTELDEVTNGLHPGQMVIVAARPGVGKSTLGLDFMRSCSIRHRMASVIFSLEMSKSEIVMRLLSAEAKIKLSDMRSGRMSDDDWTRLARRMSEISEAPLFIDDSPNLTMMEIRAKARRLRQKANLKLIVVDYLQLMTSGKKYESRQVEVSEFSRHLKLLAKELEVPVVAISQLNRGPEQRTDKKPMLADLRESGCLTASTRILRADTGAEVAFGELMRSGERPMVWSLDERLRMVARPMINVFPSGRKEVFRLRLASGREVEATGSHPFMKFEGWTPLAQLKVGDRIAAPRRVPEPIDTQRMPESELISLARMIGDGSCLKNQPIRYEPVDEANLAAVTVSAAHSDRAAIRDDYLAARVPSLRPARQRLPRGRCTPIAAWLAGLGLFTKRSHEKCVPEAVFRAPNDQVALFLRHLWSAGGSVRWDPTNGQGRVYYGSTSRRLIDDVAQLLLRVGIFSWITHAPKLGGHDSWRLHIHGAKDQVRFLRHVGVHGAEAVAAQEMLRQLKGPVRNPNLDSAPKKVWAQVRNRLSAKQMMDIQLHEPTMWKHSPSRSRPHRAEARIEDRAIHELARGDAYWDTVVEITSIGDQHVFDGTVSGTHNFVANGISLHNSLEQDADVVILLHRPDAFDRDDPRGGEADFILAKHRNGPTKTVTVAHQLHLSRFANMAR

[4] = molecular target: T3, Protein RecA (Mycobacterium tuberculosis, UniProt P9WHJ3); test: Fluorescence Cell-Free Homogeneous Dose Retest to Identify Inhibitors of RecA-Intein Splicing Activity. [Related pubchem assays (depositor defined):AID2097, AID2223, AID489010, AID492950]; format: functional
T3 sequence (P9WHJ3 whole entry): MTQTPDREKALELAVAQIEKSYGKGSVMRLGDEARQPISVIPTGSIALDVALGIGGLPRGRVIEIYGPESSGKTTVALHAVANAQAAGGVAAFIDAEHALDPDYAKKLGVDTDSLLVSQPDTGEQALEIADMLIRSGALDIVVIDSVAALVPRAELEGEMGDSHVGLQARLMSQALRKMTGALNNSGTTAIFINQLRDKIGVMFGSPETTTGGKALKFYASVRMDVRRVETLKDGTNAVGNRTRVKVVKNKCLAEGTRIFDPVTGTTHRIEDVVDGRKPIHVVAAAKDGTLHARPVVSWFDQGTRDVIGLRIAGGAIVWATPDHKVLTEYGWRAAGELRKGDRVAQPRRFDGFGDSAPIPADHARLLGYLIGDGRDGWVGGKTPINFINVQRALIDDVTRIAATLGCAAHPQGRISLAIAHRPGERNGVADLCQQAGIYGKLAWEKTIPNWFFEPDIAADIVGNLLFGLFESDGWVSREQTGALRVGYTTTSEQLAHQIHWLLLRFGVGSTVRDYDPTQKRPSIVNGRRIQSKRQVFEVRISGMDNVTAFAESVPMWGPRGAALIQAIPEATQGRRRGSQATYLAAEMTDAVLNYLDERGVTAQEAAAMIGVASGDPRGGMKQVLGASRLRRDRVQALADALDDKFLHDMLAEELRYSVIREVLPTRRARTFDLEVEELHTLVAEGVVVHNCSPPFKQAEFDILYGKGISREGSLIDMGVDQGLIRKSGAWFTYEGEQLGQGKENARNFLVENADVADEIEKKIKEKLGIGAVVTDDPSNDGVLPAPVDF

[5] = molecular target: T1, Hexokinase HKDC1; test: SAR analysis of small molecule inhibitors of hexokinase domain containing I (HKDC1) - Set 3. [Related pubchem assays (depositor defined):AID493160, AID493190]; format: functional
[6] = molecular target: T1, Hexokinase HKDC1; test: analog inhibition of human HKDC1 activity – biochemical, set 2, SAR follow-up (AID 588355); format: functional
[7] = blockers of CAL PDZ ligand groove binding – biochemical, fluorescence polarization, untagged CAL PDZ, cherry-pick, dose response (AID 602267); format: functional
[8] = molecular target: T4, Caspase-6 (Homo sapiens, UniProt P55212); test: inhibition of CASP6 peptide cleavage – biochemical, VEID-R110 fluorescence, cherry-pick, dose response (AID 720632)
T4 sequence (P55212 whole entry): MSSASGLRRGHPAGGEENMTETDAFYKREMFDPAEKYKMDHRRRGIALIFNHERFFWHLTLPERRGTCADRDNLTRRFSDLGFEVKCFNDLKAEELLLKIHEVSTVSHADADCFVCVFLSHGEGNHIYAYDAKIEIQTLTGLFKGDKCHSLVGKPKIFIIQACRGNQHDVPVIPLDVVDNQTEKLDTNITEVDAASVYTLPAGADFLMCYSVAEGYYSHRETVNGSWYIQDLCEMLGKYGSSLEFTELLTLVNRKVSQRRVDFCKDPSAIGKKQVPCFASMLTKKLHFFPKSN

[9] = molecular target: T5, Tyrosyl-DNA phosphodiesterase 2 (Homo sapiens, UniProt O95551); test: potency against TDP2 phosphodiesterase activity – biochemical, epi absorbance, IC50, dose response (AID 743297)
T5 sequence (O95551 whole entry): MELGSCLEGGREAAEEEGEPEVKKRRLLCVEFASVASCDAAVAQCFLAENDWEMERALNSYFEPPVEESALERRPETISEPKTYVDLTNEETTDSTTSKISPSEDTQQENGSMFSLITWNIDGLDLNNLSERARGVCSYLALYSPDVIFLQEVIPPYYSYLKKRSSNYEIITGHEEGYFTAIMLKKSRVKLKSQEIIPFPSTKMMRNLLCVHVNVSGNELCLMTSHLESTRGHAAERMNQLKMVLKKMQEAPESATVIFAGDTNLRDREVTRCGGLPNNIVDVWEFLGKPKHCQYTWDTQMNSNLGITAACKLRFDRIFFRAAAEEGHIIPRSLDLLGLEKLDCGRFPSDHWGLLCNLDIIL

[10] = molecular target: Glycogen synthase kinase-3 beta (Homo sapiens, UniProt P49841); test: inhibition of human GSK3B activity – biochemical, microfluidics, dry powder samples, set 2, dose response (AID 623989); format: functional
[11] = molecular target: Glycogen synthase kinase-3 alpha (Homo sapiens, UniProt P49840); test: GSK3A enzyme blockers, homolog specificity check – biochemical, microfluidics, dry powder samples, set 2, selectivity assay for GSK3beta inhibitor project, dose response (AID 623978); format: functional
[12] = cells
[13] = molecular target: T6, DNA dC->dU-editing enzyme APOBEC-3A (Homo sapiens, UniProt P31941); test: SAR analysis of small molecule inhibitors of APOBEC3A DNA Deaminase via a fluorescence-based single-stranded DNA deaminase assay - Set 2.; format: functional; conditions: read-out: IC50_Mean
[14] = molecular target: T7, DNA dC->dU-editing enzyme APOBEC-3G (Homo sapiens, UniProt Q9HC16); test: SAR analysis of small molecule inhibitors of APOBEC3G DNA Deaminase via a fluorescence-based single-stranded DNA deaminase assay - Set 2.; format: functional; conditions: read-out: IC50_Mean
[15] = molecular target: T7, DNA dC->dU-editing enzyme APOBEC-3G; test: inhibition of APOBEC3G ssDNA deamination – biochemical, fluorescence, single-stranded DNA substrate, SAR follow-up (AID 602136); format: functional; conditions: read-out: IC50_Mean
[16] = molecular target: T6, DNA dC->dU-editing enzyme APOBEC-3A; test: SAR analysis of small molecule inhibitors of APOBEC3A DNA Deaminase via a fluorescence-based single-stranded DNA deaminase assay.; format: functional; conditions: read-out: IC50_Mean
[17] = molecular target: T8, Melanin-concentrating hormone receptor 1 (Homo sapiens, UniProt Q99705); test: Late-stage fluorescence-based counterscreen for antagonists of the G-protein coupled receptor 7 (GPR7): cell-based dose response assay to identify antagonists of the melanin-concentrating hormone receptor 1 (MCHR1) Set 6.; format: functional
[18] = molecular target: T9, Neuropeptides B/W receptor type 1 (Homo sapiens, UniProt P48145); test: human NPBW1 receptor blockade, IC50 – cell-based, fluorescence, dose response, set 6, late-stage follow-up (AID 588583); format: functional
T9 sequence (P48145 whole entry): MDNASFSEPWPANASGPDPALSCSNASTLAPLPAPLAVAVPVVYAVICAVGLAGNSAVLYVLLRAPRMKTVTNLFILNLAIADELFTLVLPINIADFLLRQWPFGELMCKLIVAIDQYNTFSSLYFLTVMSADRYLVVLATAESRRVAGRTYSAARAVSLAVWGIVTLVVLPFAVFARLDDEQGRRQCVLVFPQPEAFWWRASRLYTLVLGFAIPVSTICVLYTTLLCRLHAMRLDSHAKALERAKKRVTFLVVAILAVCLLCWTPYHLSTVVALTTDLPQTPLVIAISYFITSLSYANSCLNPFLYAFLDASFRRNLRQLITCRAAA

[19] = molecular target: T9, Neuropeptides B/W receptor type 1; test: human NPBW1 receptor blockade, IC50 – cell-based, fluorescence, dose response, set 5, late-stage follow-up (AID 588566); format: functional
[20] = molecular target: T8, Melanin-concentrating hormone receptor 1; test: Late-stage fluorescence-based counterscreen for antagonists of the G-protein coupled receptor 7 (GPR7): cell-based dose response assay to identify antagonists of the melanin-concentrating hormone receptor 1 (MCHR1) Set 5.; format: functional

T7 sequence (Q9HC16 whole entry): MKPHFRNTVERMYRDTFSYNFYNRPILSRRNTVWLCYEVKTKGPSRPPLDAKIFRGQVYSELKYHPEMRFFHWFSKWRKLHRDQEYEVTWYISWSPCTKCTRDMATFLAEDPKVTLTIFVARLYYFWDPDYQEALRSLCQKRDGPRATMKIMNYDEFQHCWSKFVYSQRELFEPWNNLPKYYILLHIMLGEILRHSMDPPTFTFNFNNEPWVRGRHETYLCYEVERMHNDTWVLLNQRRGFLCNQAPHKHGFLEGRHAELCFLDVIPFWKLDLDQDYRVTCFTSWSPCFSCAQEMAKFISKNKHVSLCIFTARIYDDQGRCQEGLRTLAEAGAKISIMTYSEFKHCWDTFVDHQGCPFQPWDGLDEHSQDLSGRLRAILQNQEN
T8 sequence (Q99705 whole entry): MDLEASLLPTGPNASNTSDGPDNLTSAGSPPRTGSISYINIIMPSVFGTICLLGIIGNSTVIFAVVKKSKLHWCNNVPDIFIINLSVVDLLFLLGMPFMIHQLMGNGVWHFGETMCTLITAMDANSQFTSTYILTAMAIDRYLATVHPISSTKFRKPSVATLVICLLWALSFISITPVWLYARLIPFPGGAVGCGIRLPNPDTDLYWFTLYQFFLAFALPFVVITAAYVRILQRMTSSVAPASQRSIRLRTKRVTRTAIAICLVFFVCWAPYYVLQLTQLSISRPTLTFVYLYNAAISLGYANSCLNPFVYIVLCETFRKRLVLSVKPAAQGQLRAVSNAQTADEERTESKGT
T6 sequence (P31941 whole entry): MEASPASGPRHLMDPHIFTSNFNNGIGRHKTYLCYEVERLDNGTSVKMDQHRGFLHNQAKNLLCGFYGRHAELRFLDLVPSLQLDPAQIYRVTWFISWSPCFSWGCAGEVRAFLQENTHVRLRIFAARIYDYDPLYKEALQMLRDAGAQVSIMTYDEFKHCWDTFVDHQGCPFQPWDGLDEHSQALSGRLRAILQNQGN
Glycogen synthase kinase-3 alpha, sequence (P49840 whole entry): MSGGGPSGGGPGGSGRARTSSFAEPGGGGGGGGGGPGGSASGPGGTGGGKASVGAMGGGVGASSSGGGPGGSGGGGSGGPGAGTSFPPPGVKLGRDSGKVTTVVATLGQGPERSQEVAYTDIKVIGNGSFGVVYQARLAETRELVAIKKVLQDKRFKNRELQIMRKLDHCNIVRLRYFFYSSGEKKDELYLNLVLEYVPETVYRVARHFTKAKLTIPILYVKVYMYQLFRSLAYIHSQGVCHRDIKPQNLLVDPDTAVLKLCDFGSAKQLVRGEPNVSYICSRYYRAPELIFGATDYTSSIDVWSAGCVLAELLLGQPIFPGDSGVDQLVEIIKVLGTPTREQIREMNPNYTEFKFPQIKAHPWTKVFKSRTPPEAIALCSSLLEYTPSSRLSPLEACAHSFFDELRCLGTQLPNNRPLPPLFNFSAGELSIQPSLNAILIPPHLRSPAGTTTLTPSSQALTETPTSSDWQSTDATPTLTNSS
Cystic fibrosis transmembrane conductance regulator/Golgi-associated PDZ and coiled-coil motif-containing protein, sequence (P13569 whole entry, other chains not shown): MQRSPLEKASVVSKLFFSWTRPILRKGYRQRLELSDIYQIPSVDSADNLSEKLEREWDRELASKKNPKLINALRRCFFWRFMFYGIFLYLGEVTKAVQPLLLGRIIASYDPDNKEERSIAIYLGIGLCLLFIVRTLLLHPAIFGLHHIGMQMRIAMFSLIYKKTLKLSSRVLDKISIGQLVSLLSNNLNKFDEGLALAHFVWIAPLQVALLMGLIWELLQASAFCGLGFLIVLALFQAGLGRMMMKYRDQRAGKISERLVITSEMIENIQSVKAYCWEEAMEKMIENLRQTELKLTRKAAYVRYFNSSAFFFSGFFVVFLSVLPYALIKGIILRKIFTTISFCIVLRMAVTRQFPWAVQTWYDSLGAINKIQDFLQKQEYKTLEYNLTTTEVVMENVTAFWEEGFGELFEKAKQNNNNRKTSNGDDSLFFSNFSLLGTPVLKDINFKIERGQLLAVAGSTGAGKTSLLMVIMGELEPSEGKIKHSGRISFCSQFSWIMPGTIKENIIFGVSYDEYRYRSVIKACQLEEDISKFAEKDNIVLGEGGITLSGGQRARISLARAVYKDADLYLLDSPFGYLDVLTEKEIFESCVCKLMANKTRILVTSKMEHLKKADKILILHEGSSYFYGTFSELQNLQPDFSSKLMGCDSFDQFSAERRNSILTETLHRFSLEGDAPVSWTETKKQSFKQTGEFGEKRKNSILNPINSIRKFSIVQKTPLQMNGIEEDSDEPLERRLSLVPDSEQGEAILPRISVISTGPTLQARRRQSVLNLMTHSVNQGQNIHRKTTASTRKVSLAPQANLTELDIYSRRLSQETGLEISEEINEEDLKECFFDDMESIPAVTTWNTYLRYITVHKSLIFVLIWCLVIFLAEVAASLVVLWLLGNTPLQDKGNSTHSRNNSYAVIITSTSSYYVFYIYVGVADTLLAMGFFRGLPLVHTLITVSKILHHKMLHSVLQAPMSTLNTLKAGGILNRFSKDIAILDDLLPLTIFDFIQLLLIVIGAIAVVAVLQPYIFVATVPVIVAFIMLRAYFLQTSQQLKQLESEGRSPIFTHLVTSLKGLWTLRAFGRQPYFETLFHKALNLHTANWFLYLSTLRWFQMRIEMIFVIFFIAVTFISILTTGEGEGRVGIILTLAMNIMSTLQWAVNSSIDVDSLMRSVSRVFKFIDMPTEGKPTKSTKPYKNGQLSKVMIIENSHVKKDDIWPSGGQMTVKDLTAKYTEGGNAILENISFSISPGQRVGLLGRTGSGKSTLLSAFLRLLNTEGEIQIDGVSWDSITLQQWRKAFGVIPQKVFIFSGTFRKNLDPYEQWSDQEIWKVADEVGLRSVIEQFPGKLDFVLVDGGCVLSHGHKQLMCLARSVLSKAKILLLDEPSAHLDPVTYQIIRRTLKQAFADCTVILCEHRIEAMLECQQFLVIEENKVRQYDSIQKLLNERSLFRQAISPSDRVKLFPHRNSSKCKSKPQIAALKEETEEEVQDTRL
Glycogen synthase kinase-3 beta, sequence (P49841 whole entry): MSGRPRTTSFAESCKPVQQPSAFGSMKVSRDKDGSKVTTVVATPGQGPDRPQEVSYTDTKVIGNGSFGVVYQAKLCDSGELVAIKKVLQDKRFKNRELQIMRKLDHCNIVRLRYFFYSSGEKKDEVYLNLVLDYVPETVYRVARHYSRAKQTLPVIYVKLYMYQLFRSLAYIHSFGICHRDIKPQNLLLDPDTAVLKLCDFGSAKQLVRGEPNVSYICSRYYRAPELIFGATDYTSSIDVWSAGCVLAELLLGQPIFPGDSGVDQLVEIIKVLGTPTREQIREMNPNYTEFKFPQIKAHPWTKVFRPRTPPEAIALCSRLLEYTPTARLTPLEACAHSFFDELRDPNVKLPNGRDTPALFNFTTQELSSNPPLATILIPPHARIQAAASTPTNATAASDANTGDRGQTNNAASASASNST

SMILES: CC(=O)NC1C(=O)N(CCN2CCOCC2)c2ccc(Br)cc21 (stereo not given)
- AC50 [1]: 24.8 µM (active)
- IC50 [2]: 5.24 µM (active)
- AC50 [3]: 14.3 µM (active)
- EC50 [4]: 11 µM (active)
- IC50 [5]: 6.88 µM (active)
- IC50 [6]: 8.67 µM (active)
- AC50 [7]: 82.6 µM (active)
- AC50 [8]: 12.6 µM (active)
- IC50 [9]: 16.3 µM (inactive)

SMILES: Fc1cccc(Nc2nc(-c3ccncc3)nc3ccccc23)c1
- AC50 [10]: 0.894 µM (active)
- AC50 [11]: 29.7 µM (active)
- IC50 [12]: 44.3 µM (active)

SMILES: CC1(C)Oc2ccc3ccc(=O)oc3c2C(C=NCCO)=C1O
- IC50 [13]: 50.4 µM (inactive)
- IC50 [14]: 2.34 µM (active)
- IC50 [15]: 12.3 µM (inactive)
- IC50 [16]: 28.8 µM (inactive)

SMILES: N#CC(c1cccc(F)c1F)c1c(Cl)cnn(Cc2cccc3ccccc23)c1=O (stereo not given)
- IC50 [17]: 0.542 µM (active)
- IC50 [18]: 0.542 µM (active)

SMILES: COc1ccc(Oc2c(Cl)cnn(Cc3ccccc3OCc3ccccc3)c2=O)cc1
- IC50 [19]: 1.21 µM (active)
- IC50 [20]: 16.5 µM (inactive)

Source: ChEMBL document CHEMBL1201862, “PubChem BioAssay data set” (2004)
